Assay results reported in patent EP2768830B1, “APOPTOSIS-INDUCING AGENTS FOR THE TREATMENT OF CANCER AND IMMUNE AND AUTOIMMUNE DISEASES” (AbbVie Inc., priority 2011, dated 2013).
Like-named read-outs stand apart in the source and are kept apart here.

Experiments:
[1] = tested on: mouse FL5.12 cells transfected with Bcl-XL; test: FL5.12 cellular assay (cell viability, CellTiter-Glo); assay type: cell-based; conditions: FL5.12 cells transfected with Bcl-XL, IL-3-depleted, 3% FBS assay media, 24 hours, CellTiter-Glo, read-out: FL5.12 Bcl-xL, - IL3, EC 50;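 also: each EC50 determination derived from duplicate measurements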
[2] = molecular target: GST-Bcl-xL (Homo sapiens, UniProt Q07817); conditions: read-out: TR-FRET binding Bcl-xL Ki
GST-Bcl-xL, sequence (Q07817 whole entry): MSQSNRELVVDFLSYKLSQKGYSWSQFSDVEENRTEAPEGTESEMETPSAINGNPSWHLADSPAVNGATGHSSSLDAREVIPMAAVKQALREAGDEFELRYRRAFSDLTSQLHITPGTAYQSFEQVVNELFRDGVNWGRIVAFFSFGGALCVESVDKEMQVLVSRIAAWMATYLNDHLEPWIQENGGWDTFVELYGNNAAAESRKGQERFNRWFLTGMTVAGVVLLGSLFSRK

`Cc1c(-c2ccc(N3CCc4cccc(C(=O)Nc5nc6ccccc6s5)c4C3)nc2C(=O)O)cnn1CC1(C)CCCCC1` [Example 82, 6-[8-(1,3-benzothiazol-2-ylcarbamoyl)-3,4-dihydroisoquinolin-2(1H)-yl]-3-{5-methyl-1-[(1-methylcyclohexyl)methyl]-1H-pyrazol-4-yl}pyridine-2-carboxylic acid] gave an EC50 ([1]; Mus musculus) of 8 nM and a Ki [2] of 0.5 nM.

For `CN(C)CCCNc1ccc(Cn2cc(-c3ccc(N4CCc5cccc(C(=O)Nc6nc7ccccc7s6)c5C4)nc3C(=O)O)cn2)cc1[N+](=O)[O-]` [Example 44, 6-[8-(1,3-benzothiazol-2-ylcarbamoyl)-3,4-dihydroisoquinolin-2(1H)-yl]-3-[1-(4-{[3-(dimethylamino)propyl]amino}-3-nitrobenzyl)-1H-pyrazol-4-yl]pyridine-2-carboxylic acid], the EC50 ([1]; Mus musculus) was greater than 1000 nM and the Ki [2] was 17 nM.

Compound `Cc1noc(-c2cccc(Cn3cc(-c4ccc(N5CCc6cccc(C(=O)Nc7nc8ccccc8s7)c6C5)nc4C(=O)O)cn3)c2)n1` [Example 29, 6-[8-(1,3-benzothiazol-2-ylcarbamoyl)-3,4-dihydroisoquinolin-2(1H)-yl]-3-{1-[3-(3-methyl-1,2,4-oxadiazol-5-yl)benzyl]-1H-pyrazol-4-yl}pyridine-2-carboxylic acid] has an EC50 ([1]; Mus musculus) greater than 1000 nM and a Ki [2] of 18 nM.

Work on `O=C(Nc1nc2ccccc2s1)c1cccc2c1CN(c1ccc(-c3cnn(Cc4ccc(F)c([N+](=O)[O-])c4)c3)c(C(=O)O)n1)CC2` [Example 45, 6-[8-(1,3-benzothiazol-2-ylcarbamoyl)-3,4-dihydroisoquinolin-2(1H)-yl]-3-[1-(4-fluoro-3-nitrobenzyl)-1H-pyrazol-4-yl]pyridine-2-carboxylic acid] yielded an EC50 ([1]; Mus musculus) greater than 1000 nM and a Ki [2] of 19 nM.

Compound `CC1(C)CCC(Cn2cc(-c3ccc(N4CCc5cccc(C(=O)Nc6nc7ccccc7s6)c5C4)nc3C(=O)O)cn2)=C(c2ccc(Cl)cc2)C1` [Example 83, 6-[8-(1,3-benzothiazol-2-ylcarbamoyl)-3,4-dihydroisoquinolin-2(1H)-yl]-3-(1-{[2-(4-chlorophenyl)-4,4-dimethylcyclohex-1-en-1-yl]methyl}-1H-pyrazol-4-yl)pyridine-2-carboxylic acid] has an EC50 ([1]; Mus musculus) greater than 1000 nM and a Ki [2] of 0.5 nM.

`O=C(Nc1nc2ccccc2s1)c1cccc2c1CN(c1ccc(-c3cnn(Cc4ccc(Cl)cc4)c3)c(C(=O)O)n1)CC2` [Example 15, 6-[8-(1,3-benzothiazol-2-ylcarbamoyl)-3,4-dihydroisoquinolin-2(1H)-yl]-3-[1-(4-chlorobenzyl)-1H-pyrazol-4-yl]pyridine-2-carboxylic acid] was tested, and the EC50 [1] was greater than 1000 nM and the Ki [2] was 35 nM.

In the case of `O=C(Nc1nc2ccccc2s1)c1cccc2c1CN(c1ccc(-c3cnn(CC4CCNCC4)c3)c(C(=O)O)n1)CC2` [Example 135, 6-[8-(1,3-benzothiazol-2-ylcarbamoyl)-3,4-dihydroisoquinolin-2(1H)-yl]-3-[1-(piperidin-4-ylmethyl)-1H-pyrazol-4-yl]pyridine-2-carboxylic acid], the EC50 ([1]; Mus musculus) is reported as greater than 1000 nM and the Ki [2] is reported as 78 nM.

In the case of `Cc1c(-c2ccc(N3CCc4cccc(C(=O)Nc5nc6ccccc6s5)c4C3)nc2C(=O)O)cnn1Cc1ccccc1OCC1COCCO1` (stereo not shown) [Example 100, 6-[8-(1,3-benzothiazol-2-ylcarbamoyl)-3,4-dihydroisoquinolin-2(1H)-yl]-3-{1-[2-(1,4-dioxan-2-ylmethoxy)benzyl]-5-methyl-1H-pyrazol-4-yl}pyridine-2-carboxylic acid], the EC50 ([1]; Mus musculus) is reported as 66 nM and the Ki [2] is reported as 3 nM.

For `Cc1nn(Cc2ccccc2)cc1-c1ccc(N2CCc3cccc(C(=O)Nc4nc5ccccc5s4)c3C2)nc1C(=O)O` [Example 19, 6-[8-(1,3-benzothiazol-2-ylcarbamoyl)-3,4-dihydroisoquinolin-2(1H)-yl]-3-(1-benzyl-3-methyl-1H-pyrazol-4-yl)pyridine-2-carboxylic acid], the EC50 ([1]; Mus musculus) was 398 nM and the Ki [2] was 28 nM.

`O=C(Nc1nc2ccccc2s1)c1cccc2c1CN(c1ccc(-c3cnn(Cc4cccc(-c5ccccc5)c4)c3)c(C(=O)O)n1)CC2` [Example 58, 6-[8-(1,3-benzothiazol-2-ylcarbamoyl)-3,4-dihydroisoquinolin-2(1H)-yl]-3-[1-(biphenyl-3-ylmethyl)-1H-pyrazol-4-yl]pyridine-2-carboxylic acid] showed an EC50 ([1]; Mus musculus) greater than 1000 nM and a Ki [2] of 174 nM.

In the case of `CN(C)CCCOc1ccccc1Cn1cc(-c2ccc(N3CCc4cccc(C(=O)Nc5nc6ccccc6s5)c4C3)nc2C(=O)O)cn1` [Example 47, 6-[8-(1,3-benzothiazol-2-ylcarbamoyl)-3,4-dihydroisoquinolin-2(1H)-yl]-3-(1-{2-[3-(dimethylamino)propoxy]benzyl}-1H-pyrazol-4-yl)pyridine-2-carboxylic acid], the EC50 ([1]; Mus musculus) is reported as 881 nM and the Ki [2] is reported as 16 nM.

For `COCC1(Cn2ncc(-c3ccc(N4CCc5cccc(C(=O)Nc6nc7ccccc7s6)c5C4)nc3C(=O)O)c2C)CCCCC1` [Example 144, 6-[8-(1,3-benzothiazol-2-ylcarbamoyl)-3,4-dihydroisoquinolin-2(1H)-yl]-3-(1-{[1-(methoxymethyl)cyclohexyl]methyl}-5-methyl-1H-pyrazol-4-yl)pyridine-2-carboxylic acid], the EC50 ([1]; Mus musculus) was 213 nM and the Ki [2] was less than 0.1 nM.

`O=C(Nc1nc2cccc(Cl)c2s1)c1cccc2c1CN(c1ccc(-c3cnn(Cc4ccccc4)c3)c(C(=O)O)n1)CC2` [Example 21, 3-(1-benzyl-1H-pyrazol-4-yl)-6-{8-[(7-chloro-1,3-benzothiazol-2-yl)carbamoyl]-3,4-dihydroisoquinolin-2(1H)-yl}pyridine-2-carboxylic acid] was tested, and the EC50 [1] was greater than 1000 nM and the Ki [2] was 183 nM.

In the case of `CC(C)(C)OC(=O)N1CCC(Cn2cc(-c3ccc(N4CCc5cccc(C(=O)Nc6nc7ccccc7s6)c5C4)nc3C(=O)O)cn2)CC1` [Example 78, 6-[8-(1,3-benzothiazol-2-ylcarbamoyl)-3,4-dihydroisoquinolin-2(1H)-yl]-3-(1-{[1-(tert-butoxycarbonyl)piperidin-4-yl]methyl}-1H-pyrazol-4-yl)pyridine-2-carboxylic acid], the EC50 ([1]; Mus musculus) is reported as greater than 1000 nM and the Ki [2] is reported as 379 nM.

With `O=C(Nc1nc2ccccc2s1)c1cccc2c1CN(c1ccc(-c3cccc(OC4CCCCC4)c3C(F)(F)F)c(C(=O)O)n1)CC2` [Example 120, 6-[8-(1,3-benzothiazol-2-ylcarbamoyl)-3,4-dihydroisoquinolin-2(1H)-yl]-3-[3-(cyclohexyloxy)-2-(trifluoromethyl)phenyl]pyridine-2-carboxylic acid] the EC50 ([1]; Mus musculus) was 859 nM and the Ki [2] was 0.4 nM.

In the case of `Cc1c(-c2ccc(N3CCc4cccc(C(=O)Nc5nc6ccccc6s5)c4C3)nc2C(=O)O)cnn1C(CCN1CCOCC1)C1CCCCC1` (stereo not shown) [Example 152, 6-[8-(1,3-benzothiazol-2-ylcarbamoyl)-3,4-dihydroisoquinolin-2(1H)-yl]-3-{1-[1-cyclohexyl-3-(morpholin-4-yl)propyl]-5-methyl-1H-pyrazol-4-yl}pyridine-2-carboxylic acid], the EC50 ([1]; Mus musculus) is reported as 1 nM and the Ki [2] is reported as less than 0.1 nM.

In the case of `O=C(Nc1nc2ccccc2s1)c1cccc2c1CN(c1ccc(-c3cccc(Oc4ccc(Cl)cc4)c3)c(C(=O)O)n1)CC2` [Example 105, 6-[8-(1,3-benzothiazol-2-ylcarbamoyl)-3,4-dihydroisoquinolin-2(1H)-yl]-3-[3-(4-chlorophenoxy)phenyl]pyridine-2-carboxylic acid], the EC50 ([1]; Mus musculus) is reported as greater than 1000 nM and the Ki [2] is reported as 7 nM.

With `O=C(Nc1nc2ccccc2s1)c1cccc2c1CN(c1ccc(-c3cnn(Cc4ccccc4OCCN4CCOCC4)c3)c(C(=O)O)n1)CC2` [Example 46, 6-[8-(1,3-benzothiazol-2-ylcarbamoyl)-3,4-dihydroisoquinolin-2(1H)-yl]-3-(1-{2-[2-(morpholin-4-yl)ethoxy]benzyl}-1H-pyrazol-4-yl)pyridine-2-carboxylic acid] the EC50 ([1]; Mus musculus) was greater than 1000 nM and the Ki [2] was 9 nM.

`Cc1c(-c2ccc(N3CCc4cccc(C(=O)Nc5nc6ccccc6s5)c4C3)nc2C(=O)O)cnn1CC1(OCCO)CCCCC1` [Example 169, 6-[8-(1,3-benzothiazol-2-ylcarbamoyl)-3,4-dihydroisoquinolin-2(1H)-yl]-3-(1-{[1-(2-hydroxyethoxy)cyclohexyl]methyl}-5-methyl-1H-pyrazol-4-yl)pyridine-2-carboxylic acid] showed an EC50 ([1]; Mus musculus) of 10 nM and a Ki [2] of less than 0.1 nM.

`CN(C)c1cccc(Cn2cc(-c3ccc(N4CCc5cccc(C(=O)Nc6nc7ccccc7s6)c5C4)nc3C(=O)O)cn2)c1` [Example 34, 6-[8-(1,3-benzothiazol-2-ylcarbamoyl)-3,4-dihydroisoquinolin-2(1H)-yl]-3-{1-[3-(dimethylamino)benzyl]-1H-pyrazol-4-yl}pyridine-2-carboxylic acid] gave an EC50 ([1]; Mus musculus) of 907 nM and a Ki [2] of 23 nM.

`COCCC1(Cn2ncc(-c3ccc(N4CCc5cccc(C(=O)Nc6nc7ccccc7s6)c5C4)nc3C(=O)O)c2C)CCCCCC1` [Example 134, 6-[8-(1,3-benzothiazol-2-ylcarbamoyl)-3,4-dihydroisoquinolin-2(1H)-yl]-3-(1-{[1-(2-methoxyethyl)cycloheptyl]methyl}-5-methyl-1H-pyrazol-4-yl)pyridine-2-carboxylic acid] was tested, and the EC50 ([1]; Mus musculus) was 0.9 nM and the Ki [2] was less than 0.1 nM.

Compound `O=C(Nc1nc2ccccc2s1)c1cccc2c1CN(c1ccc(-c3ccn(S(=O)(=O)c4ccccc4)c3)c(C(=O)O)n1)CC2` [Example 128, 6-[8-(1,3-benzothiazol-2-ylcarbamoyl)-3,4-dihydroisoquinolin-2(1H)-yl]-3-[1-(phenylsulfonyl)-1H-pyrrol-3-yl]pyridine-2-carboxylic acid] has an EC50 ([1]; Mus musculus) greater than 1000 nM and a Ki [2] of 7 nM.

In the case of `O=Cc1cccc(Cn2cc(-c3ccc(N4CCc5cccc(C(=O)Nc6nc7ccccc7s6)c5C4)nc3C(=O)O)cn2)c1` [Example 64, 6-[8-(1,3-benzothiazol-2-ylcarbamoyl)-3,4-dihydroisoquinolin-2(1H)-yl]-3-[1-(3-formylbenzyl)-1H-pyrazol-4-yl]pyridine-2-carboxylic acid], the EC50 ([1]; Mus musculus) is reported as greater than 1000 nM and the Ki [2] is reported as 61 nM.
